From patent US11401286B2 (Tetra Discovery Partners, LLC, priority 2012, dated 2022) come the findings set out here.

The assay has as its target PDE4D7 (Homo sapiens (Human), UniProt Q08499). The note with it: read-out: PDE4D7 IC50.

SMILES strings stand for the structures. Where a name gives a salt, the structure may show the parent alone. Read-outs that look alike come from different tables or passages of the source.

Sequence of PDE4D7 (Q08499 other isoform, or with tags, fused parts or gaps): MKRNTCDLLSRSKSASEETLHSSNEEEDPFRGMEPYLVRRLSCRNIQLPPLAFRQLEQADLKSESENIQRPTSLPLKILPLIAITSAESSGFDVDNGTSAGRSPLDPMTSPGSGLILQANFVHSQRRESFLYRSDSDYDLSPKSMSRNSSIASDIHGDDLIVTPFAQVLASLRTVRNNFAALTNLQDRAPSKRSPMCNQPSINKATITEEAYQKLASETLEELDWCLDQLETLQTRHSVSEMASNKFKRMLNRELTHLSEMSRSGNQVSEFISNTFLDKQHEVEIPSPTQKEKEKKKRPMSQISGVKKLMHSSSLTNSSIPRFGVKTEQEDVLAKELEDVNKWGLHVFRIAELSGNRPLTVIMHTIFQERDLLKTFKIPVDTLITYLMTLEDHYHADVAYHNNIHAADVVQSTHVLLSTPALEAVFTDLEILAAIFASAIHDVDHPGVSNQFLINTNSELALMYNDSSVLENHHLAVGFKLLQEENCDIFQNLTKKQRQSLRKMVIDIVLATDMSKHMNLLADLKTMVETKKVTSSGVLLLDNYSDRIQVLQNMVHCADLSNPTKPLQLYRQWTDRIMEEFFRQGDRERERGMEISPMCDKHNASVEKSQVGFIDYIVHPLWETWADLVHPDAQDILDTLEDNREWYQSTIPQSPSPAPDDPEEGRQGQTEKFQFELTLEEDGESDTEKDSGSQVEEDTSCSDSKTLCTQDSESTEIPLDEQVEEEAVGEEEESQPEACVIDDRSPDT
Procedure: Here, a kinetic assay of cAMP hydrolysis by purified PDE4 was used, in which PDE4 activity was measured by coupling the formation of the PDE4 reaction product, 5′-adenosine monophosphate, to the oxidation of reduced nicotinamide adenine dinucleotide (NADH) by the use of three coupling enzymes (myokinase, pyruvate kinase and lactate dehydrogenase), which allows fluorescent determination of reaction rates. Assays are performed in 96-well plates in a total volume of 200 μl/well. Compounds are dissolved in dimethylsulfoxide (DMSO) and added to plates in a volume of 10 μl followed by addition of 165 μl of assay mix. Plates are pre-incubated at 25° C. for 15 min and the reactions are initiated by the addition of 25 μl of cAMP followed by thorough mixing. […] Initial rates (slopes) are determined from linear portions of the progress curves. Final concentrations of assay components are as follows: 50 mM Tris, pH 8, 10 mM MgCl2, 50 mM KCl, 2% DMSO, 5 mM tris(2-carboxyethyl)phosphine (TCEP), 0.4 mM phosphenolpyruvate (PEP), 0.01 mM NADH, 0.04 mM adenosine triphosphate (ATP), 0.004 mM cAMP, 7.5 units myokinase from yeast, 1.6 units pyruvate kinase, 2 units lactate dehydrogenase, and either 0.5 nM human PDE4D7 or 10 nM human PDE4B1. All data are percent normalized relative to controls and are presented as percent inhibition. […] Human PDE4D7 contained a mutation of serine 54 to aspartic acid to mimic activation by cAMP-dependent protein kinase A (PKA).
PDE4D7*=PDE4D7 containing a UCR1 activating mutation S54D.

Take `CCc1nc(Oc2ccc(CC(N)=O)cc2)nc(-c2cccc(Cl)c2)n1` [Example 61, 2-(4-((4-(3-chlorophenyl)-6-ethyl-1,3,5-triazin-2-yl)oxy)phenyl)acetamide]: the IC50 (in general, the point on the concentration scale where inhibition reaches its midpoint) (PDE4D7 without asterisk) was above 1000 nM.
Same read-out and setting: the result for `OCCc1ccc(Nc2cc(C(F)(F)F)nc(-c3cccc(Cl)c3)n2)cc1` [Example 219, 2-(4-((2-(3-Chlorophenyl)-6-(trifluoromethyl)pyrimidin-4-yl)amino)phenyl)ethanol] reads above 1000 nM; that for `NC(=O)CCc1ccc(Nc2cc(-c3cccc(Cl)c3)nc3c2CCC3)cc1` [Example 119, 3-(4-((2-(3-chlorophenyl)-6,7-dihydro-5H-cyclopenta[b]pyridin-4-yl)amino)phenyl)propanamide hydrochloride], above 1000 nM; that for `CCCc1nc(Nc2ccc(CC(=O)O)cc2)nc(-c2ccc(Cl)s2)n1` [Example 32, 2-(4-((4-(5-chlorothiophen-2-yl)-6-propyl-1,3,5-triazin-2-yl)amino)phenyl)acetic acid], above 1000 nM.
Still for that read-out and setting: in the case of `O=C(O)Cc1ccc(Nc2nc(-c3cccc(Cl)c3)nc3c2S(=O)(=O)CCC3)cc1` [Example 275, 2-(4-((2-(3-chlorophenyl)-5,5-dioxido-7,8-dihydro-6H-thiopyrano[3,2-d]pyrimidin-4-yl)amino)phenyl)acetic acid] it was below 1000 nM.
For `NC(=O)C(Cc1ccc(Nc2cc(-c3cccc(Cl)c3)nc3c2CCC3)cc1)C(N)=O` [Example 122, 2-(4-((2-(3-Chlorophenyl)-6,7-dihydro-5H-cyclopenta[b]pyridin-4-yl)amino)benzyl)malonamide hydrochloride], under “PDE4D7 without asterisk”, the IC50 is above 1000 nM.
For `CC(O)Cc1ccc(Nc2cc(-c3cccc(Cl)c3)nc3c2CCC3)cc1` (stereo not shown) [Example 104, 1-(4-((2-(3-Chlorophenyl)-6,7-dihydro-5H-cyclopenta[b]pyridin-4-yl)amino)phenyl)propan-2-ol], under “PDE4D7 without asterisk”, the IC50 was above 1000 nM.
For `Fc1ccc(Nc2cc(-c3cccc(Cl)c3)nc3c2CCC3)cc1` [Example 290, 2-(3-Chlorophenyl)-N-(4-fluorophenyl)-6,7-dihydro-5H-cyclopenta[b]pyridin-4-amine hydrochloride], under “PDE4D7 without asterisk”, the IC50 was above 1000 nM.
As for `NC(=O)Cc1ccc(Nc2ccnc(-c3cccc(Cl)c3)c2)cc1` [Example 83, 2-(4-((2-(3-Chlorophenyl)pyridin-4-yl)amino)phenyl)acetamide hydrochloride], the IC50 (PDE4D7 without asterisk) is above 1000 nM.
Same read-out and setting: the result for `NC(=O)Cc1ccc(Nc2cc(C(F)(F)F)nc(OC3CCCC3)n2)cc1` [Example 198, 2-(4-((2-(Cyclopentyloxy)-6-(trifluoromethyl)pyrimidin-4-yl)amino)phenyl)acetamide] reads above 1000 nM.
The same measure, in the same setting: the result for `OCCc1ccc(Nc2nc(C3CCCC3)nc3c2SCCC3)cc1` [Example 283, 2-(4-((2-Cyclopentyl-7,8-dihydro-6H-thiopyrano[3,2-d]pyrimidin-4-yl)amino)phenyl)ethanol] reads below 1000 nM.
Still for that read-out and setting: in the case of `CC(C)c1nc(Nc2ccc(F)cc2)nc(-c2ccc(Cl)s2)n1` [Example 26, 4-(5-chlorothiophen-2-yl)-N-(4-fluorophenyl)-6-isopropyl-1,3,5-triazin-2-amine] it was above 1000 nM; in that of `N#CNC(=O)Cc1ccc(Nc2nc(-c3cccc(Cl)c3)nc3c2SCCC3)cc1` [Example 314, 2-[4-[[2-(3-Chlorophenyl)-7,8-dihydro-6H-thiopyrano[3,2-d]pyrimidin-4-yl]amino]phenyl]-N-cyano-acetamide], below 1000 nM; in that of `OCC(O)c1ccc(Nc2cc(-c3cccc(Cl)c3)nc3c2CCC3)cc1` (stereo not shown) [Example 115, 1-(4-((2-(3-Chlorophenyl)-6,7-dihydro-5H-cyclopenta[b]pyridin-4-yl)amino)phenyl)ethane-1,2-diol hydrochloride], above 1000 nM.
As for `OCC[C@H]1CC[C@H](Nc2cc(-c3cccc(Cl)c3)nc3c2CCC3)CC1` [Example 97, Trans-2-(4-((2-(3-chlorophenyl)-6,7-dihydro-5H-cyclopenta[b]pyridin-4-yl)amino)cyclohexyl)ethanol hydrochloride], the IC50 (PDE4D7 without asterisk) was above 1000 nM.
Still for that read-out and setting: in the case of `CN(C(N)=O)c1ccc(Nc2cc(-c3cccc(Cl)c3)nc3c2CCC3)cc1` [Example 129, 1-(4-((2-(3-Chlorophenyl)-6,7-dihydro-5H-cyclopenta[b]pyridin-4-yl)amino)phenyl)-1-methylurea hydrochloride] it was above 1000 nM.
Still for that read-out and setting: the result for `NC(=O)Cc1ccc(Nc2nc(-c3ccccc3)nc3c2S(=O)(=O)CCC3)cc1` [Example 269, 2-(4-((5,5-dioxido-2-phenyl-7,8-dihydro-6H-thiopyrano[3,2-d]pyrimidin-4-yl)amino)phenyl)acetamide] reads below 1000 nM; that for `CCc1c(Nc2ccc(CC(=O)O)cc2)cc(-c2cccc(Cl)c2)nc1C` [Example 7, 2-[4-[[6-(3-Chlorophenyl)-3-ethyl-2-methyl-4-pyridyl]amino]phenyl]acetic acid], above 1000 nM.
Consider `OCCc1ccc(Nc2cc(-c3cccc(Cl)c3)nc(C3CC3)c2)cc1` [Example 140, 2-(4-((2-(3-Chlorophenyl)-6-cyclopropylpyridin-4-yl)amino)phenyl)ethanol hydrochloride], for which the IC50 (PDE4D7 without asterisk) was above 1000 nM.
As to `CCc1cc(Nc2ccc(CCO)cc2)nc(-c2cccc(Cl)c2)n1` [Example 191, 2-(4-((2-(3-chlorophenyl)-6-ethylpyrimidin-4-yl)amino)phenyl)ethanol], the IC50 is below 1000 nM.
With `OCCc1ccc(Nc2nc(-c3cccc(Cl)c3)nc3c2CCC3)cc1` [Example 162, 2-(4-((2-(3-Chlorophenyl)-6,7-dihydro-5H-cyclopenta[d]pyrimidin-4-yl)amino)phenyl)ethanol], the IC50 (PDE4D7 without asterisk) was below 1000 nM.
The same measure, in the same setting: in the case of `O=S1(=O)CCCc2nc(-c3cccc(Cl)c3)nc(Cc3ccc(CCO)cc3)c21` [Example 278, 2-(3-chlorophenyl)-4-(4-(2-hydroxyethyl)benzyl)-7,8-dihydro-6H-thiopyrano[3,2-d]pyrimidine 5,5-dioxide] it was below 1000 nM; in that of `Clc1ccc(-c2nc(Nc3ccc(Cc4nnn[nH]4)cc3)cc(C3CC3)n2)s1` [Example 298, 2-(5-Chloro-2-thienyl)-6-cyclopropyl-N-[4-(1H-tetrazol-5-ylmethyl)phenyl]pyrimidin-4-amine], above 1000 nM.
On the same count and under the same terms, the result for `O=S1(=O)CCCc2nc(-c3cccc(Cl)c3)nc(Nc3ccc(Cc4nn[nH]n4)cc3)c21` [Example 316, 2-(3-Chlorophenyl)-5,5-dioxo-N-[4-(2H-tetrazol-5-ylmethyl)phenyl]-7,8-dihydro-6H-thiopyrano[3,2-d]pyrimidin-4-amine] reads below 1000 nM.
Same read-out and setting: the result for `O=C(O)Cc1ccc(Nc2nc(-c3ccc(Cl)s3)nc(C3CC3)n2)cc1` [Example 34, 2-(4-(4-(5-chlorothiophen-2-yl)-6-cyclopropyl-1,3,5-triazin-2-ylamino)phenyl)acetic acid] reads above 1000 nM; that for `NC(=O)CCCNc1nc(-c2cccc(Cl)c2)nc2c1CCC2` [Example 178, 4-((2-(3-Chlorophenyl)-6,7-dihydro-5H-cyclopenta[d]pyrimidin-4-yl)amino)butanamide], above 1000 nM.
Turning to `CC(O)Cc1ccc(Nc2nc(-c3cccc(Cl)c3)nc3c2CCC3)cc1` (stereo not shown) [Example 165, 1-(4-((2-(3-Chlorophenyl)-6,7-dihydro-5H-cyclopenta[d]pyrimidin-4-yl)amino)phenyl)propan-2-ol], for the setting “PDE4D7 without asterisk”, the IC50 is above 1000 nM.
The same measure, in the same setting: the result for `C=Cc1ccc(Nc2nc(-c3cccc(Cl)c3)nc3c2CCC3)cc1` [Example 174, 2-(3-Chlorophenyl)-N-(4-vinylphenyl)-6,7-dihydro-5H-cyclopenta[d]pyrimidin-4-amine] reads above 1000 nM.
On the same count and under the same terms, the result for `NC(=O)Cc1ccc(Nc2nc(-c3cccc(Cl)c3)nc3c2S(=O)(=O)CC3)cc1` [Example 282, 2-(4-((2-(3-chlorophenyl)-5,5-dioxido-6,7-dihydrothieno[3,2-d]pyrimidin-4-yl)amino)phenyl)acetamide] reads above 1000 nM; that for `CCCNC(=O)Cc1ccc(Nc2nc(-c3ccc(Cl)s3)nc(C)c2CC)cc1` [Example 307, 2-[4-[[2-(5-Chloro-2-thienyl)-5-ethyl-6-methyl-pyrimidin-4-yl]amino]phenyl]-N-propyl-acetamide], below 1000 nM; that for `O=S1(=O)CCCc2nc(C3CCCC3)nc(Nc3ccc(CCO)cc3)c21` [Example 285, 2-Cyclopentyl-4-((4-(2-hydroxyethyl)phenyl)amino)-7,8-dihydro-6H-thiopyrano[3,2-d]pyrimidine 5,5-dioxide], below 1000 nM.
The same measure, in the same setting: the result for `OCCc1ccc(Nc2cc(-c3ccc(F)c(Cl)c3)nc3c2CCC3)cc1` [Example 151, 2-(4-((2-(3-Chloro-4-fluorophenyl)-6,7-dihydro-5H-cyclopenta[b]pyridin-4-yl)amino)phenyl)ethanol hydrochloride] reads above 1000 nM; that for `CCc1cc(Nc2ccc(C(CO)C(F)(F)F)cc2)nc(-c2cccc(Cl)c2)n1` (stereo not shown) [Example 186, 2-(4-((2-(3-Chlorophenyl)-6-ethylpyrimidin-4-yl)amino)phenyl)-3,3,3-trifluoropropan-1-ol], above 1000 nM; that for `CCc1c(C)nc(-c2ccc(Cl)s2)nc1Nc1ccc(Cc2nc(C(N)=O)c[nH]2)cc1` [Example 310, 2-[[4-[[2-(5-Chloro-2-thienyl)-5-ethyl-6-methyl-pyrimidin-4-yl]amino]phenyl]methyl]-1H-imidazole-4-carboxamide], above 1000 nM.
Consider `NC(=O)Cc1ccc(Nc2cc(C3CCCCC3)nc3c2CCC3)cc1` [Example 250, 2-(4-((2-Cyclohexyl-6,7-dihydro-5H-cyclopenta[b]pyridin-4-yl)amino)phenyl)acetamide hydrochloride], for which the IC50 (PDE4D7 without asterisk) is above 1000 nM.
For the molecule `CCc1c(C)nc(-c2ccc(Cl)s2)nc1Nc1ccc(CS(C)(=O)=O)cc1` [Example 317, 2-(5-chloro-2-thienyl)-5-ethyl-6-methyl-N-[4-(methylsulfonylmethyl)phenyl]pyrimidin-4-amine], the IC50 (PDE4D7 without asterisk) was above 1000 nM.
On the same count and under the same terms, in the case of `CC(C)(C(=O)O)c1ccc(Cc2cc(-c3cccc(Cl)c3)nc3c2CCC3)cc1` [Example 126, 2-(4-((2-(3-Chlorophenyl)-6,7-dihydro-5H-cyclopenta[b]pyridin-4-yl)methyl)phenyl)-2-methylpropanoic acid hydrochloride] it was above 1000 nM.
